Source: patent publication US5376671A, “Propenoyl-imidazole derivatives” (Bayer Aktiengesellschaft, priority 1992, dated 1994)
≈ marks a conversion by molar mass, not a printed value.

Experiments:
[1] = target: T1, angiotensin II receptor on membrane fractions of adrenal gland cortex (bovine) (Bos taurus, UniProt P25104); experiment: Interaction with the angiotensin II receptor on membrane fractions of adrenal gland cortex (bovine), 3H-angiotensin II binding; details: 3H-angiotensin II 3-5 nM, 60 min, room temperature
T1 construct: partially purified membrane fractions of bovine AGC using radioactive angiotensin II; from tissue; host or cells: bovine adrenal gland cortex, partially purified membrane fractions
T1 sequence (P25104 1-359): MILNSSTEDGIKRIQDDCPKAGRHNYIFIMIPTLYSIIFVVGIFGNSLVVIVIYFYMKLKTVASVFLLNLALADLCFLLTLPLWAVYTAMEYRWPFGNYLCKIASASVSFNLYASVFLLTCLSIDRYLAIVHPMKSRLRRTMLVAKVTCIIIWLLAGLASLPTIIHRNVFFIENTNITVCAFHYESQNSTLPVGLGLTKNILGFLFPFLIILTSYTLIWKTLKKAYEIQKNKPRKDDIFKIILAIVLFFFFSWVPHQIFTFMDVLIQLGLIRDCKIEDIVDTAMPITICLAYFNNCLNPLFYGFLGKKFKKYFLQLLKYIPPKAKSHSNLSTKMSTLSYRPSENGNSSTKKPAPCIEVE
From the text: Interaction of the compounds according to the invention with the angiotensin II receptor on membrane fractions of adrenal gland cortex (bovine)
Bovine adrenal gland cortices (AGC) which have been freshly removed and carefully freed from gland medulla are comminuted in sucrose solution (0.32M) with the aid of an Ultra-turrax (Janke & Kunkel, Staufen I. B.) to give a coarse membrane homogenate and are partially purified to give membrane fractions in two centrifugation steps. The receptor binding investigations are carried out on partially purified membrane fractions of bovine AGC using radioactive angiotensin II in an assay volume of 0.25 ml which, in detail, contains the partially purified membranes (50-80 μg) ^3 H-angiotensin II (3-5 nM), test buffer solution (50 mM tris, pH 7.2), 5 mM MgCl2 and the substances to be investigated. After an incubation time of 60 min at room temperature, the unbound radioactivity of the samples is separated by means of moistened glass fibre filters (Whatman GF/C) and the bound radioactivity is measured […] in a scintillation cocktail after washing the protein with ice-cold buffer solution (50 mM tris/HCl, pH 7.4, 5% PEG 6000). […]

[2] = system: smooth muscle cells from rats' aortas; experiment: Inhibition of proliferation of smooth muscle cells (3H-thymidine incorporation); assay type: cell-based; details: 10^-6 M, rat aortic smooth muscle cells, 10% FCS
Protocol: Investigation of the inhibition of proliferation of smooth muscle cells by the compounds according to the invention
To determine the antiproliferative action of the compounds, smooth muscle cells are used that have been obtained from rats' aortas by the media explant technique [R. Ross, J. Cell. Biol. 50. 172, 1971]. The cells are innoculated into suitable culture dishes (as a rule 96-hole plates, and cultured at 37° C. for 2-3 days in medium containing added serum, 2 mM L-glutamine and 15 mM HEPES, pH 7.4, in 5% CO2. The cells are then synchronised by withdrawal of serum for 2-3 days and then stimulated into growth by serum or other factors. Test desired compounds are added simultaneously. After 16-20 hours, 1 μCi of ^3 H-thymidine is added, and after a further 4 hours, the incorporation of this substance into the TCA-precipitable DNA of the cells is determined.

[3] = target: T2, type 2 angiotensin II receptor (AT2) (Bos taurus, UniProt G5E6F7); experiment: Interaction with the type 2 angiotensin II receptor (AT2) on membrane fractions of bovine cerebellum, 125I-angiotensin II binding; details: bovine cerebellum membranes; 125I-angiotensin II about 0.1 nM; 60 min, 37° C.
T2 construct: membrane fractions of bovine cerebellum; purchased NEN DuPont NED-001; host or cells: bovine cerebellum membrane fractions
T2 sequence (G5E6F7 1-362): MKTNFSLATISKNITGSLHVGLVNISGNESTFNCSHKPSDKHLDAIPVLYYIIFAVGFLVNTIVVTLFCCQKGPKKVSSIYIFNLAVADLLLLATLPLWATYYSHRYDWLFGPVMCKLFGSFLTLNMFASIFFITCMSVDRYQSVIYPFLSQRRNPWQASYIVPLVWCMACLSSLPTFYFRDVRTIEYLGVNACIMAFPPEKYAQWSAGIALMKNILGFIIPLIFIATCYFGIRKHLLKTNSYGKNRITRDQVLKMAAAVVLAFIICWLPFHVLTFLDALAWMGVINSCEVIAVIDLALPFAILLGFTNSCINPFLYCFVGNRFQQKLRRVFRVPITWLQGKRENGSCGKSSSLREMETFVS
Protocol: Interaction of the compounds according to the invention with the type 2 angiotensin II receptor (AT2) on membrane fractions of bovine cerebellum
For the test, the AT2 receptor "Drug Discovery System" of NEN DuPont (Catalogue No. NED-001) is used. The test is carried out correspondingly using the test protocol additionally supplied. Receptor binding is carried out in a test volume of 235 μl, which in detail contains ^125 I-angiotensin II (about 0.1 nM), Test buffer (PBS, NaCl, EDTA, PMSF, DTT, DMSO) and the substances to be investigated. After an incubation of 60 min at 37° C., the unbound radioactivity of the samples is separated by means of moistened glass fibre filters (Whatman GF/C) and the bound radioactivity is measured […] in a scintillation cocktail after washing the protein with ice-cold buffer solution (0.9% strength NaCl). The analysis of the raw data was carried out using computer programs for the IC50 or Ki value determination (IC50 value: concentration at which the substance to be investigated causes a 50% inhibition of the specific binding of the radioligand: Ki value: IC50 value corrected for the radioactivity used).

[4] = system: isolated rabbit aorta (contraction induced by angiotensin II); experiment: Inhibition of vascular contraction in isolated rabbit aorta rings in vitro, contractions induced by angiotensin II; details: based on the 3rd (submaximal) agonist concentration
Protocol: Rabbits of both sexes are stunned by a blow to the neck and bled out, or in some cases anesthetised with Nembutal (about 60-80 mg/kg i.v.) and sacrificed by opening the thorax. The thorax aorta is taken out, freed from adhering connective tissue, divided into 1.5 mm wide ring segments and individually transferred under an initial loading of about 3.5 g to 10 ml organ baths containing 95% 02 /5% CO2 -aerated Krebs-Henseleit nutrient solution temperature-controlled at 37° C. of the following composition: 119 mmol/l of NaCl: 2.5 mmol/l of CaCl2 ×2 H2 O; 1.2 mmol/l of KH2 PO4; 10 mmol/l of glucose; 4.8 mmol/l of KCl; 1.4 mmol/l of MgSO4 ×7 H2 O and 25 mmol/l of NaHCO3.
The contractions are measured isometrically by Statham UC2 cells by means of bridge amplifiers (ifd Mulheim or DSM Aalen) and digitalised and analysed by means of A/D converters (System 570, Keithley Munich). Agohist dose response curves (DRC) were plotted hourly. With each DRC, 3 or 4 individual concentrations are applied to the baths at an interval of 4 min. After completion of the DRC and subsequent washing-out cycles (16 times, in each case about 5 sec/min with the abovementioned nutrient solution), a 28-minute resting or incubation phase is added in the course of which the contractions usually reach the starting value again.
The height of the 3rd DRC in the normal case is used as a reference quantity for the evaluation of the test substance to be investigated in further passages, which is applied to the baths in the following DRCs in increasing dosage in each case at the start of the incubation time. In this way, each aorta ring is always stimulated for the whole day with the same agohist.
To calculate the IC50 (concentration at which the substance to be investigated causes a 50% inhibition), the effect is in each case based on the 3rd=submaximal agonist concentration.

| SMILES | Ki [1] [nM] | IC50 against contractions induced by angiotensin II [4] [µg/mL] | further results |
| --- | --- | --- | --- |
| CCCCc1nc(Cl)c(/C=C(\CC2CCCCC2)C(=O)O)n1Cc1ccc(C(C(=O)N[C@H](CO)c2ccccc2)C2CCCC2)cc1 (stereo partly shown) [Example 8] | 80 |  |  |
| CCCCc1nc(Cl)c(/C=C(\CC2CCCCC2)C(=O)OC)n1Cc1ccc(C(C(=O)N[C@H](CO)c2ccccc2)C2CCCC2)cc1 (stereo partly drawn) [Example 5, (E)-2-[4-{2-n-Butyl-4-chloro-5-(3-cyclohexyl-2-methoxyarbonyl-prop-1-en-yl)-1H-imidazol-1-methyl}phenyl]-2-cyclopentyl-acetic acid L-phenylglycinolamide] |  |  | inhibition at 1 µM [2]: 90% |
| CCCCc1nc(Cl)c(/C=C(\CC2CCCCC2)C(=O)O)n1Cc1ccc(C(C(=O)O)C2CCCC2)cc1 (racemic) [Example 4] |  | 0.063 (≈ 0.116 µM) | Ki [3]: 827 nM |
| CCCCc1nc(Cl)c(/C=C(\CC2CCCCC2)C(=O)OC)n1Cc1ccc(C(C(=O)NS(=O)(=O)c2ccc(C)cc2)C2CCCC2)cc1 (stereo not shown) [Example 6, (E)-N-4-Toluenesulphonyl-2-[4-{2-n-butyl-4-chloro-5-(3-cyclohexyl-2-methoxycarbonyl-prop-1-en-yl)-1H-imidazol-1-yl-methyl}phenyl]-2-cyclopentyl-acetamide] | 750 |  |  |
| CCCCc1nc(Cl)c(/C=C(\CC2CCCCC2)C(=O)O)n1Cc1ccc(C(C(=O)O)C2CCCCCC2)cc1 (stereo not shown) [Example 12] |  | 0.046 (≈ 0.0808 µM) |  |
| CCCCc1nc(Cl)c(/C=C(\CC2CCCCC2)C(=O)O)n1Cc1ccc(C(C(=O)NS(=O)(=O)c2ccc(C)cc2)C2CCCC2)cc1 (stereo not shown) [Example 7] |  | 0.051 (≈ 0.0735 µM) |  |
